Laboratory results as given in ChEMBL document CHEMBL5236595, “JDQ443, a Structurally Novel, Pyrazole-Based, Covalent Inhibitor of KRASG12C for the Treatment of Solid Tumors” (J Med Chem, 2022).
pIC50: −log10 of the molar value. ≈ marks a conversion by molar mass, not a printed value.

Experiments:
[1] = AUC in human MIA PaCa-2 cells xenografted mouse at 30 mg/kg, po; assay type: ADME, organism-based; set-up: dose 30 mg/kg, route po; conditions: in vivo
[2] = system: GTPase KRas (Homo sapiens), P01116 [G12C]; experiment: Displacement of [acrylamide-2,3-3H2]-N-(3-fluoro-4-(2-methyl-3-(5-methyl-1H- indazole-4-yl)-1H-pyrrolo[ 2,3-b]pyridin-1-yl)-phenyl from KRAS G12C mutant (unknown origin) assessed as ratio of Kinact/Ki by competitive scintillation proximity assay
[3] = Cmax in human MIA PaCa-2 cells xenografted mouse at 30 mg/kg, po; assay type: ADME, organism-based; set-up: dose 30 mg/kg, route po; conditions: in vivo
[4] = Aqueous solubility of compound in pH 4; assay type: physicochemical; conditions: aqueous medium
GTPase KRas = GTPase KRas (Homo sapiens, UniProt P01116, G12C); experiment: Inhibition of KRAS G12C mutant in human NCI-H358 cells assessed as reduction in ERK phosphorylation incubated for 6 hrs by MSD assay; assay type: cell-based
[5] = Lipophilicity, logD of compound at pH 7.4; assay type: physicochemical; conditions: buffer
[6] = Apparent permeability across apical to basolateral side in MDCK-MDR1 cells at 10 uM after 2 hrs by LC-MS/MS analysis; assay type: ADME, cell-based, Canis lupus familiaris; conditions: dog
[7] = Cysteine reactivity in pH 7.4 phosphate buffer assessed as compound half life at 2 uM in presence of GSH
[8] = system: GTPase KRas (Homo sapiens), P01116 [G12C]; experiment: In vivo target occupancy at KRAS G12C mutant in human MIA PaCa-2 cells xenografted mouse assessed as decrease in free KRAS G12C level at 30 mg/kg, po after 6 hrs; assay type: functional, organism-based
[9] = Aqueous solubility of compound in pH 6.8; assay type: physicochemical; conditions: aqueous medium
[10] = system: GTPase KRas (Homo sapiens), P01116 [G12C]; experiment: In vivo target occupancy at KRAS G12C mutant in human MIA PaCa-2 cells xenografted mouse assessed as decrease in […] expression at 30 mg/kg, po after 6 hrs; assay type: functional, organism-based
[11] = system: GTPase KRas (Homo sapiens), P01116 [G12C]; experiment: In vivo target occupancy at KRAS G12C mutant in human MIA PaCa-2 cells xenografted mouse assessed as decrease in […] expression at 30 mg/kg, po after 24 hrs; assay type: functional, organism-based
[12] = system: GTPase KRas (Homo sapiens), P01116 [G12C]; experiment: In vivo target occupancy at KRAS G12C mutant in human MIA PaCa-2 cells xenografted mouse assessed as decrease in free KRAS G12C level at 30 mg/kg, po after 24 hrs; assay type: functional, organism-based
[13] = system: GTPase KRas (Homo sapiens), P01116 [G12C]; experiment: In vivo target occupancy at KRAS G12C mutant in human MIA PaCa-2 cells xenografted mouse assessed as decrease in free KRAS G12C level at 30 mg/kg, po after 3 hrs; assay type: functional, organism-based
[14] = Plasma protein binding in mouse incubated for 6 hrs by LC-MS/MS based rapid equlibrium dialysis method; assay type: ADME, cell-free; conditions: read-out: PPB (converted)
NCI-H358 = experiment: Antiproliferative activity against human NCI-H358 cells by resazurin assay; assay type: functional
[15] = Cmax in mouse at 30 mg/kg, po measured upto 24 hrs by LC-MS/MS method; assay type: ADME, organism-based; set-up: dose 30 mg/kg, time < 24 hrs, route po; conditions: in vivo
[16] = Dose normalized AUC in mouse at 30 mg/kg, po measured upto 24 hrs by LC-MS/MS method; assay type: ADME, organism-based; conditions: in vivo
[17] = Tmax in mouse xenografted with human MIA PaCa-2 cells at 3 to 30 mg/kg, po; assay type: ADME, organism-based; conditions: in vivo, dose 3-30 mg/kg
Cytochrome P450 2D6 = Cytochrome P450 2D6 (Homo sapiens, UniProt P10635); experiment: Inhibition of CYP2D6 in human liver microsomes using bufuralol as substrate incubated for 10 to 30 mins in presence of NADPH by LC-MS/MS method; assay type: ADME, Microsome
Cytochrome P450 3A4 [18] = target: T1, Cytochrome P450 3A4 (Homo sapiens, UniProt P08684); experiment: Inhibition of CYP3A4 in human liver microsomes using testosterone as substrate incubated for 10 to 30 mins in presence of NADPH by LC-MS/MS method; assay type: ADME, Microsome
[19] = Tmax in mouse at 30 mg/kg, po measured upto 24 hrs by LC-MS/MS method; assay type: ADME, organism-based; conditions: in vivo
[20] = Solubility of compound in FeSSIF; assay type: ADME
[21] = Apparent permeability in human Caco-2 cells; assay type: ADME, cell-based
[22] = Volume of distribution at steady state in Beagle dog at 0.1 mg/kg, iv measured upto 24 hrs by LC-MS/MS method; assay type: ADME, organism-based, Canis lupus familiaris; conditions: in vivo, read-out: Vdss
Cytochrome P450 2C9 [23] = target: T2, Cytochrome P450 2C9 (Homo sapiens, UniProt P11712); experiment: Inhibition of CYP2C9 in human liver microsomes using diclofenac as substrate incubated for 10 to 30 mins in presence of NADPH by LC-MS/MS method; assay type: ADME, Microsome
NCI-H1437 = experiment: Antiproliferative activity against human NCI-H1437 cells by resazurin assay; assay type: functional
Nav1.5 = Nav1.5 (Homo sapiens, UniProt Q14524); experiment: Inhibition of Nav1.5 (unknown origin) at 50 uM relative to control
[24] = AUCinfinity in Beagle dog at 15 mg/kg, po measured upto 24 hrs by LC-MS/MS method; assay type: ADME, organism-based, Canis lupus familiaris; set-up: dose 15 mg/kg, time < 24 hrs, route po; conditions: in vivo
[25] = Plasma protein binding in rat incubated for 6 hrs by LC-MS/MS based rapid equlibrium dialysis method; assay type: ADME, cell-free; conditions: read-out: PPB (converted)
[26] = Plasma protein binding in dog incubated for 6 hrs by LC-MS/MS based rapid equlibrium dialysis method; assay type: ADME, cell-free, Canis lupus familiaris; conditions: read-out: PPB (converted)
Cav1.2 = Cav1.2 (Homo sapiens, UniProt Q13936); experiment: Inhibition of Cav1.2 (unknown origin) at 50 uM relative to control
[27] = Plasma protein binding in human incubated for 6 hrs by LC-MS/MS based rapid equlibrium dialysis method; assay type: ADME, cell-free; conditions: read-out: PPB (converted)
MIA PaCa-2 [28] = experiment: Antitumor activity against human MIA PaCa-2 cells xenografted in mouse assessed as tumor regression at 10 mg/kg, po; assay type: functional
[29] = target: Voltage-gated inwardly rectifying potassium channel KCNH2 (Homo sapiens, UniProt Q12809); experiment: Inhibition of human ERG by manual patch clamp method; assay type: toxicity
[30] = Tmax in Beagle dog at 15 mg/kg, po measured upto 24 hrs by LC-MS/MS method; assay type: ADME, organism-based, Canis lupus familiaris; conditions: in vivo
[31] = Solubility of compound in FaSSIF; assay type: ADME
Cytochrome P450 2C9 [32] = target: T2, Cytochrome P450 2C9; experiment: Time dependent inhibition of CYP2C9 in pooled human liver microsomes measured upto 30 mins by LC-MS/MS method; assay type: ADME, Microsome; conditions: 0.5 h
Cytochrome P450 3A4 [33] = target: T1, Cytochrome P450 3A4; experiment: Time dependent inhibition of CYP3A4 in pooled human liver microsomes measured upto 30 mins by LC-MS/MS method; assay type: ADME, Microsome; conditions: 0.5 h
[34] = Dose normalized AUC in Beagle dog at 15 mg/kg, po measured upto 24 hrs by LC-MS/MS method; assay type: ADME, organism-based, Canis lupus familiaris; conditions: in vivo
[35] = target: Voltage-dependent L-type calcium channel subunit alpha-1C (Homo sapiens, UniProt Q13936); experiment: Inhibition of Cav1.2 (unknown origin)
[36] = Volume of distribution at steady state in mouse at 1 mg/kg, iv measured upto 24 hrs by LC-MS/MS method; assay type: ADME, organism-based; conditions: in vivo, read-out: Vdss
[37] = AUCinfinity in mouse at 30 mg/kg, po measured upto 24 hrs by LC-MS/MS method; assay type: ADME, organism-based; set-up: dose 30 mg/kg, time < 24 hrs, route po; conditions: in vivo
[38] = target: Sodium channel protein type 5 subunit alpha (Homo sapiens, UniProt Q14524); experiment: Inhibition of Nav1.5 (unknown origin)
[39] = system: GTPase KRas (Homo sapiens), P01116 [G12C]; experiment: In vivo target occupancy at KRAS G12C mutant in human MIA PaCa-2 cells xenografted mouse assessed as decrease in […] expression at 30 mg/kg, po after 3 hrs; assay type: functional, organism-based
[40] = Toxicity in mouse xenografted with human MIA PaCa-2 cells assessed as tolerability at 3 to 30 mg/kg, po; assay type: organism-based; conditions: in vivo, dose 3-30 mg/kg
MIA PaCa-2 [41] = experiment: Antitumor activity against human MIA PaCa-2 cells xenografted in mouse assessed as tumor regression at 30 mg/kg, po; assay type: functional
[42] = Cmax in Beagle dog at 15 mg/kg, po measured upto 24 hrs by LC-MS/MS method; assay type: ADME, organism-based, Canis lupus familiaris; set-up: time < 24 hrs, dose 15 mg/kg, route po; conditions: in vivo

`C=CC(=O)N1CC2(CC(n3nc(-c4ccc5c(cnn5CCN(C)C)c4)c(-c4c(Cl)c(C)cc5[nH]ncc45)c3C)C2)C1` gave an AUC [1] of 0.5 µM·h, a Ratio [2] of 150 mM⁻¹ s⁻¹ and a Cmax [3] of 300 nM. It also gave a solubility [4] of 850 µM (≈ 496 µg/mL), a pIC50 (GTPase KRas) of 7.52 and a logD [5] of 3.7. It also gave a Papp A→B at 2 h, 10 µM [6] of 0.9 ×10⁻⁶ cm/s.

In the case of `C=CC(=O)Nc1ccc(-n2nc(C(C)C)c(-c3c(C)ccc4[nH]ncc34)c2C)c(F)c1`, the Ratio [2] was 6 mM⁻¹ s⁻¹, the pIC50 (GTPase KRas) was 6.30 and the T1/2 [7] was 20 min.

For `C=CC(=O)N1CC2(CC(n3nc(-c4cccnc4)c(-c4c(Cl)c(C)cc5[nH]ncc45)c3CC#N)C2)C1`, the Ratio [2] was 0.2 mM⁻¹ s⁻¹.

`C=CC(=O)N1CC2(CC(n3nc(-c4cccnc4)c(-c4c(Cl)c(C)cc5[nH]ncc45)c3C)C2)C1` showed a Ratio [2] of 10 mM⁻¹ s⁻¹ and a pIC50 (GTPase KRas) of 7.05.

In the case of `C=CC(=O)N1CC2(CC(n3nc(-c4ccc5nn(CCOC)cc5c4)c(-c4c(Cl)c(C)cc5[nH]ncc45)c3C)C2)C1`, the AUC [1] was 7.3 µM·h, the Occ [8] was 37% and the solubility [9] was 30 µM (≈ 17.1 µg/mL). The Ratio [2] was 225 mM⁻¹ s⁻¹, the Occ [10] was 45% and the Cmax [3] was 4300 nM. The pIC50 (GTPase KRas) was 8.40, the Occ [11] was 59% and the Occ [12] was 78%. The logD [5] was 4.2 and the Papp A→B at 2 h, 10 µM [6] was 5.4 ×10⁻⁶ cm/s.

Compound `C=CC(=O)N1CC2(CC(n3nc(-c4ccc5c(cnn5C)c4)c(-c4c(Cl)c(C)cc5[nH]ncc45)c3C)C2)C1` [OPNURASIB] has an Occ [13] of 3%, a fraction unbound at 6 h [14] of 0.016 and a GI50 (NCI-H358) of 18 nM. For the same compound, the Cmax [15] was 2000 nM, the AUC/dose [16] was 0.2 µM·h and the Tmax [17] was 60 min. For the same compound, the pIC50 (Cytochrome P450 2D6) was < 4.70, the pIC50 (Cytochrome P450 3A4 [18]) was 5.21 and the AUC [1] was 8.9 µM·h. For the same compound, the Occ [8] was 2%, the Tmax [19] was 30 min and the solubility [20] was 250 µg/mL (≈ 475 µM). It also gave a Papp [21] of 6.78 ×10⁻⁶ cm/s, a Vd [22] of 4.2 L/kg and a pIC50 (Cytochrome P450 2C9 [23]) of 5.43. The GI50 (NCI-H1437) was 4400 nM, the inhibition at 50 µM (Nav1.5) was 12% and the AUC(0-inf) [24] was 10 µM·h. It also gave a fraction unbound at 6 h [25] of 0.024, a fraction unbound at 6 h [26] of 0.031 and a solubility [9] of 10 µM (≈ 5.26 µg/mL). It also gave an inhibition at 50 µM (Cav1.2) of 8%, a fraction unbound at 6 h [27] of 0.007 and an Activity (MIA PaCa-2 [28]) of -34%. The pIC50 [29] was < 5.33, the Occ [10] was 37% and the Cmax [3] was 1700 nM. For the same compound, the Tmax [30] was 300 min, the solubility [31] was 6 µg/mL (≈ 11.4 µM) and the TDI (Cytochrome P450 2C9 [32]) was “Not Active”. For the same compound, the TDI (Cytochrome P450 3A4 [33]) was “Not Active”, the AUC/dose [34] was 0.65 µM·h and the solubility [4] was 10 µM (≈ 5.26 µg/mL). The pIC50 [35] was < 5.00, the Vd [36] was 5.9 L/kg and the AUC(0-inf) [37] was 6 µM·h. For the same compound, the pIC50 (GTPase KRas) was 7.70, the pIC50 [38] was < 5.00 and the Occ [11] was 100%. For the same compound, the Occ [39] was 27%, the Occ [12] was 23% and the logD [5] was 4.6. The Activity [40] was “Non-Toxic”, the Papp A→B at 2 h, 10 µM [6] was 5 ×10⁻⁶ cm/s and the Activity (MIA PaCa-2 [41]) was -87%. It also gave a Cmax [42] of 1100 nM.
